{"source": "paper PMC10190190", "about": "(Journal of Enzyme Inhibition and Medicinal Chemistry, 2023)", "assay_type_in_all_cases": "biochemical", "key": {"[1]": {"molecular_target": "HDAC4 (Homo sapiens, UniProt P56524)", "sequence (P56524 whole entry, species assumed)": "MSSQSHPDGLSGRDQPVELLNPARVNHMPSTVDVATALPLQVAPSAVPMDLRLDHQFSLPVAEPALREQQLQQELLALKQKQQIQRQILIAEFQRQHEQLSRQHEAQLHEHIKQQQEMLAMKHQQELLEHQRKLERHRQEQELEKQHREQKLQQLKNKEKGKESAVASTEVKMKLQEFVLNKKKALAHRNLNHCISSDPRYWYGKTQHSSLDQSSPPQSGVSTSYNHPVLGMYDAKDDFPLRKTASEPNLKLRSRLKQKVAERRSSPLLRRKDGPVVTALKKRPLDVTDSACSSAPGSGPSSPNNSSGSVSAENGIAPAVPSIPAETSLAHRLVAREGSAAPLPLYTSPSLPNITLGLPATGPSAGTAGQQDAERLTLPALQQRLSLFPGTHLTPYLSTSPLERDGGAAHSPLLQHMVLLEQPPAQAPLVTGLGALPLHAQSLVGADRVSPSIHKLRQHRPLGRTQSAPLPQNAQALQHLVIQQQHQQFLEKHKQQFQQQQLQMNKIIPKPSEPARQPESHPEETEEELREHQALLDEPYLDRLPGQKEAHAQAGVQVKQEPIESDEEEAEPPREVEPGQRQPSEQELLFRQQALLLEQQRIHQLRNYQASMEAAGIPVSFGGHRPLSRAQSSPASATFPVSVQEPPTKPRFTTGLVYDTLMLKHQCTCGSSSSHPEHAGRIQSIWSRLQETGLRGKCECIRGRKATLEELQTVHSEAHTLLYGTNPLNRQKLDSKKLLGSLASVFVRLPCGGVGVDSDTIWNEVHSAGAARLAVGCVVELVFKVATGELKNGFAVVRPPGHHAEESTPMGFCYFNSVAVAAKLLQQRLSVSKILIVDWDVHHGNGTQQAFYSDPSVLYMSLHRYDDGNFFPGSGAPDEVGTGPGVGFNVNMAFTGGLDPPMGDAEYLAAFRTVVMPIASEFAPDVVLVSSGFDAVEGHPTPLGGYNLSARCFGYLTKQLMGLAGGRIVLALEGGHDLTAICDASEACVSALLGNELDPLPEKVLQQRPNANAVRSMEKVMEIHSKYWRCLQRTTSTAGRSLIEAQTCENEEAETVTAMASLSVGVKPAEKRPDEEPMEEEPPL", "assay": "HDAC activity assay, HDAC4"}, "[2]": {"molecular_target": "T1, HDAC7 (Homo sapiens, UniProt Q8WUI4)", "T1 sequence (Q8WUI4 1-952)": "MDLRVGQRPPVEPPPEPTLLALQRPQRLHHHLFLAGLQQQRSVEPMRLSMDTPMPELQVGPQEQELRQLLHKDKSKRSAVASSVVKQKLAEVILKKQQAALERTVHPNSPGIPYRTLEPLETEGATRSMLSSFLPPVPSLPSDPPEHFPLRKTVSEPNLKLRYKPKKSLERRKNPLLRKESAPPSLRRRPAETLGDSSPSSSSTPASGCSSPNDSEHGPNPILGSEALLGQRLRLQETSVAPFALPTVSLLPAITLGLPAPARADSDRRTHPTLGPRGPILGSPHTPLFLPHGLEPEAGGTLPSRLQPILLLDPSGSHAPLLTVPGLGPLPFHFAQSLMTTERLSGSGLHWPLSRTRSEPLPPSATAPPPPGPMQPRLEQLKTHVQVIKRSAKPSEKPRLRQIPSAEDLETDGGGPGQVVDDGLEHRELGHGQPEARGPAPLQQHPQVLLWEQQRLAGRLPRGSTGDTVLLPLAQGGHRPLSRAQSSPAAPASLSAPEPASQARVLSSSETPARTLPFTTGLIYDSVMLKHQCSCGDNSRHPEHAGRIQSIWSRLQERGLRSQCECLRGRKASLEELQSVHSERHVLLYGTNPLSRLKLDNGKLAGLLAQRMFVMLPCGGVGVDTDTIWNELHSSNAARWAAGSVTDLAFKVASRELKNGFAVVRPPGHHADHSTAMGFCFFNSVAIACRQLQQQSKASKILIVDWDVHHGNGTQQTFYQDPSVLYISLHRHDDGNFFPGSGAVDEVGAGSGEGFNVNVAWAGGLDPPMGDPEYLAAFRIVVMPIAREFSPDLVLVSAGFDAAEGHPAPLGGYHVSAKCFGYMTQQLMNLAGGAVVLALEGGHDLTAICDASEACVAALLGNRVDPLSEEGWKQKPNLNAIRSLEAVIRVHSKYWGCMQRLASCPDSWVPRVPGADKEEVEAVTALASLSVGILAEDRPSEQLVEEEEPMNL", "assay": "HDAC activity assay, HDAC7"}, "[3]": {"molecular_target": "HDAC9 (Homo sapiens, UniProt Q9UKV0)", "sequence (Q9UKV0 whole entry)": "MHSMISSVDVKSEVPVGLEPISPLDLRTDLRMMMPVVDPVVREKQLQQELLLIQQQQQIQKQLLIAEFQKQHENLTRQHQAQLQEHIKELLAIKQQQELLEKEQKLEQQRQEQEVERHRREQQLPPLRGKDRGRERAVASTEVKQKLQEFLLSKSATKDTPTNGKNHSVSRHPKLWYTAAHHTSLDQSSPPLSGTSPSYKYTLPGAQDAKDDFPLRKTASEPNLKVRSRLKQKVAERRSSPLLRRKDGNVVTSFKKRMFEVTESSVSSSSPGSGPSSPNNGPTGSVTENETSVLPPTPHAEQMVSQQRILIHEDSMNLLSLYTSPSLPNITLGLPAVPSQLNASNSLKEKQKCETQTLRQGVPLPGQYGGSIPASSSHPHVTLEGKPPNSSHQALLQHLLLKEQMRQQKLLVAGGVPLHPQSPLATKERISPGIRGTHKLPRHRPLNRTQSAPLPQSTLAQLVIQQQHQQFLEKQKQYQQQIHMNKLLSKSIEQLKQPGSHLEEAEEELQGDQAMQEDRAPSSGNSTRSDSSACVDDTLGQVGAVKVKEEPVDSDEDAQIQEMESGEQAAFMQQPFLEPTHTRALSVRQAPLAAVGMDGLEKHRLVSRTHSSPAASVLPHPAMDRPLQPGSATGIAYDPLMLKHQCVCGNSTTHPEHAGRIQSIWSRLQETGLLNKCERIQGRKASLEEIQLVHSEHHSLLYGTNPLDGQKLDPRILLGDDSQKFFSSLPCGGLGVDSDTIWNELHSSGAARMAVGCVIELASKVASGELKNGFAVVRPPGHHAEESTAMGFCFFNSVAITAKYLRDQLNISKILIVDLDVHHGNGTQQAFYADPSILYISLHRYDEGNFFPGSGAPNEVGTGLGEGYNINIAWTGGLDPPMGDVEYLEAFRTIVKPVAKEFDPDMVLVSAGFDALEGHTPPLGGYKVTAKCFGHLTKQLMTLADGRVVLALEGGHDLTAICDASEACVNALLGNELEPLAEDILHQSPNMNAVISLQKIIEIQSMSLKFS", "assay": "HDAC activity assay, HDAC9"}, "[4]": {"molecular_target": "T2, HDAC6 (Homo sapiens, UniProt Q9UBN7)", "T2 sequence (Q9UBN7 1-1215)": "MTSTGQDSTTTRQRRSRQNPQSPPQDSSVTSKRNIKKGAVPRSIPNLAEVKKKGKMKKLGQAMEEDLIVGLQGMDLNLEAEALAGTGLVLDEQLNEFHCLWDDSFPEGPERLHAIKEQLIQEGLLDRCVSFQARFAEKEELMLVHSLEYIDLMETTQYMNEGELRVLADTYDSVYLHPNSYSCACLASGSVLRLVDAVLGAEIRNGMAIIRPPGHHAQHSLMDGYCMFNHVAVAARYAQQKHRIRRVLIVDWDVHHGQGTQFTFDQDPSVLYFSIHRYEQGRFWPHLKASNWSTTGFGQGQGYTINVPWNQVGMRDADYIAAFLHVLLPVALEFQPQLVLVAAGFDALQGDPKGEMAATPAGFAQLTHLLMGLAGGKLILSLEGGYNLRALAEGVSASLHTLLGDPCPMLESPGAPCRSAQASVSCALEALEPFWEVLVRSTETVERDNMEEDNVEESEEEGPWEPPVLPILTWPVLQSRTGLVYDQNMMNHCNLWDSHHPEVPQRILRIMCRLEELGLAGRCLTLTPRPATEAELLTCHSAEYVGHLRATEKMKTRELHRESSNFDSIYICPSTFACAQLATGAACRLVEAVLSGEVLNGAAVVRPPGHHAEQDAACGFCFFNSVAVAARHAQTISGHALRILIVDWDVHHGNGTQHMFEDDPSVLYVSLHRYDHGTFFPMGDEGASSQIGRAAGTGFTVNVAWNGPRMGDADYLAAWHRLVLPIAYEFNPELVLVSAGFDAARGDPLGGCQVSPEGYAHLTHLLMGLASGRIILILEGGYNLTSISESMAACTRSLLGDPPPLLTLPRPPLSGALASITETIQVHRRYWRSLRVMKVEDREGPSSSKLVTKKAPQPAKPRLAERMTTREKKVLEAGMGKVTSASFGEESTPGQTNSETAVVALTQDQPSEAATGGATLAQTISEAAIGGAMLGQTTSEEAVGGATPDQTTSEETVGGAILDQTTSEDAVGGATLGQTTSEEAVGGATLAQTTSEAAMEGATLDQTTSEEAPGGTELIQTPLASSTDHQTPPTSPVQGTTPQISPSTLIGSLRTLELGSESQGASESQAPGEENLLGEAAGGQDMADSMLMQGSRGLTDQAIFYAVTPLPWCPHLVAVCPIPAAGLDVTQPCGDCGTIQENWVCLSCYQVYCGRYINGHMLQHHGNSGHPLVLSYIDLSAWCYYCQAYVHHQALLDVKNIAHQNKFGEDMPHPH", "assay": "HDAC activity assay, HDAC6"}}, "data": [{"smiles": "O=C(NO)c1ccc(CN2c3ccccc3Oc3ccccc32)cc1", "note": "[Compound 7a, N-Hydroxy-4-[(10H-phenoxazin-10-yl)methyl]benzamide]", "values": [{"measurement": "IC50", "setting": "[1]", "value": "4320 ± 110", "unit": "nM"}, {"measurement": "IC50", "setting": "[2]", "value": "790 ± 30", "unit": "nM"}, {"measurement": "IC50", "setting": "[3]", "value": "2200 ± 10", "unit": "nM"}, {"measurement": "IC50", "setting": "[4]", "value": "17 ± 3", "unit": "nM"}]}, {"smiles": "NC(=O)c1ccc2c(c1)Oc1ccccc1N2Cc1ccc(C(=O)NO)cc1", "note": "[Compound 7e, N-Hydroxy-4-[(3-carbamoyl-10H-phenoxazin-10-yl)methyl]benzamide]", "values": [{"measurement": "IC50", "setting": "[1]", "value": "1410 ± 180", "unit": "nM"}, {"measurement": "IC50", "setting": "[2]", "value": "520 ± 10", "unit": "nM"}, {"measurement": "IC50", "setting": "[3]", "value": "1040 ± 200", "unit": "nM"}, {"measurement": "IC50", "setting": "[4]", "value": 8, "unit": "nM"}]}, {"smiles": "O=C(NO)c1ccc(CN2c3ccccc3Oc3ccc(C(=O)Nc4ccccc4)cc32)cc1", "note": "[Compound 12b, N-Hydroxy-4-[(2-phenylcarbamoylphenoxazin-10-yl)methyl]benzamide]", "values": [{"measurement": "IC50", "setting": "[1]", "value": "3660 ± 220", "unit": "nM"}, {"measurement": "IC50", "setting": "[2]", "value": "2260 ± 10", "unit": "nM"}, {"measurement": "IC50", "setting": "[3]", "value": "3490 ± 700", "unit": "nM"}, {"measurement": "IC50", "setting": "[4]", "value": "46 ± 2", "unit": "nM"}]}, {"smiles": "O=C(NO)c1ccc(CN2c3ccccc3Oc3cc(C(=O)Nc4ccc(C(=O)c5ccccc5)cc4)ccc32)cc1", "note": "[Compound 12c, N-Hydroxy-4-{[3–(4-benzoylphenyl)carbamoyl-phenoxazin-10-yl]methyl}benzamide]", "values": [{"measurement": "IC50", "setting": "[1]", "value": "2070 ± 140", "unit": "nM"}, {"measurement": "IC50", "setting": "[2]", "value": "460 ± 20", "unit": "nM"}, {"measurement": "IC50", "setting": "[3]", "value": "15200 ± 500", "unit": "nM"}, {"measurement": "IC50", "setting": "[4]", "value": "74.8 ± 2", "unit": "nM"}]}, {"smiles": "O=C(NO)c1ccc(CN2c3ccccc3Oc3cc(C(=O)Nc4ccccc4)ccc32)cc1", "note": "[Compound 12d, N-Hydroxy-4-[(3-phenylcarbamoylphenoxazin-10-yl)methyl]benzamide]", "values": [{"measurement": "IC50", "setting": "[1]", "value": "2940 ± 520", "unit": "nM"}, {"measurement": "IC50", "setting": "[2]", "value": "1580 ± 300", "unit": "nM"}, {"measurement": "IC50", "setting": "[3]", "value": "3640 ± 60", "unit": "nM"}, {"measurement": "IC50", "setting": "[4]", "value": "43.1 ± 3", "unit": "nM"}]}, {"smiles": "N#Cc1ccc2c(c1)Oc1ccccc1N2Cc1ccc(C(=O)NO)cc1", "note": "[Compound 16, N-Hydroxy-4-[(3-cyano-10H-phenoxazin-10-yl)methyl]benzamide]", "values": [{"measurement": "IC50", "setting": "[1]", "value": "3230 ± 590", "unit": "nM"}, {"measurement": "IC50", "setting": "[2]", "value": "1220 ± 320", "unit": "nM"}, {"measurement": "IC50", "setting": "[3]", "value": "4080 ± 200", "unit": "nM"}, {"measurement": "IC50", "setting": "[4]", "value": 20, "unit": "nM"}]}, {"smiles": "O=C(NO)c1ccc(CN2c3ccccc3Oc3cc(Br)ccc32)cc1", "note": "[Compound 18, N-Hydroxy-4-[(3-bromo-10H-phenoxazin-10-yl)methyl]benzamide]", "values": [{"measurement": "IC50", "setting": "[1]", "value": "3180 ± 330", "unit": "nM"}, {"measurement": "IC50", "setting": "[2]", "value": "1750 ± 10", "unit": "nM"}, {"measurement": "IC50", "setting": "[3]", "value": "1560 ± 190", "unit": "nM"}, {"measurement": "IC50", "setting": "[4]", "value": 15, "unit": "nM"}]}, {"smiles": "O=C(NO)c1ccc(CN2c3ccccc3Oc3cc(-c4ccccc4)ccc32)cc1", "note": "[Compound 20, N-Hydroxy-4-[(3-phenyl-10H-phenoxazin-10-yl)methyl]benzamide]", "values": [{"measurement": "IC50", "setting": "[1]", "value": "8060 ± 210", "unit": "nM"}, {"measurement": "IC50", "setting": "[2]", "value": "5120 ± 20", "unit": "nM"}, {"measurement": "IC50", "setting": "[3]", "value": "6320 ± 2060", "unit": "nM"}, {"measurement": "IC50", "setting": "[4]", "value": "23 ± 3", "unit": "nM"}]}]}
